Tested on: corneal injury induced by dry eye conditions
Assay: in vivo desiccation model of dry eye (methylene blue corneal staining, absorbance at 660 nm)
Set-up: species or system rabbit
Conditions: 15(S)-HETE 1 μM (0.000034% w/v), 50 μL topical O.D., 4-hour desiccation
Description: A composition of the present invention (Example 1, with the compound of formula (III) being 15(S)-HETE) was compared to an analogous composition without ethanol, an analogous composition without 15(S)-HETE, and analogous compositions with approximately one-half, one-tenth, and twice the amount of ethanol, respectively, in an in vivo desiccation model of dry eye.
Briefly, the assay was performed by first anesthetizing the animals with ketamine/xylazine/glycopyrrolate. The O.S. eye was lubricated with DuraTears® and remained taped shut throughout the experiment. The O.D. eye was then dosed with 50 μL of test composition (Example 1) or 50 μL of the same composition without ethanol and the eye taped shut for 10 minutes. The tape was then removed, the eyelids opened and a speculum was inserted into the eye. The eye was held open with the speculum for a period of 4 hours. During this time, the animals were monitored every 15 minutes and supplemental injections of ketamine/xylazine (at half the initial dose/injection) were administered as needed to maintain anesthesia. At the end of the 4-hour period, 2 sutures were placed in the upper eyelid and 1 suture was placed in the lower eyelid. A corneal/conjunctival cup was formed by using the sutures to lift the eyelids upward and the sutures taped to a stand. 1 mL methylene blue (1% solution in water) was added to the conjunctival cup and the cornea was stained with the solution for 5 minutes. The eye was then washed with 200 mL of a balanced salt solution. Corneal thickness was determined by non-invasive pachymetry. Three readings were taken for each animal. Corneal staining score was obtained by visualizing the cornea with a slit-lamp and determining the percentage of the cornea that was stained with methylene blue. A photograph was taken using the slit-lamp machine. The rabbit was then euthanized immediately by intravenous injection of Sleepaway® solution and the eye was excised. The cornea was isolated and an 8 mm punch of the central cornea collected. This corneal punch was placed in a small glass vial containing 2 mL acetone/saturated sodium sulfate (7:3, vol/vol). Absorbance of the extracted solution was measured at 660 nm with a spectrophotometer.
The naïve control animals were anesthetized with ketamine/xylazine/glycopyrrolate and the O.S. eye lubricated and taped shut. Sutures were immediately placed in the O.D. eyelids. The corneal cup was formed and the cornea was stained with methylene blue, washed with a balanced salt solution and collected, as described above. The data were converted to “percent protection” by subtracting from 1, the quotient of the test sample absorbances divided by the average of control sample absorbance, and multiplying by 100. The results are contained in Table 1 and illustrated in FIGS. 1 and 2: […]

Compound: CCCCC[C@H](O)/C=C/C=C\C/C=C\C/C=C\CCCC(=O)O [15(S)-HETE, 5,8,11,13-Eicosatetraenoic acid, 15-hydroxy-, [15S-(5Z,8Z,11Z,13E)]-]
- % Protection (Ethanol 0.0 % (w/v)): 13%
- % Protection (Ethanol 0.00505 % (w/v)): 2%
- % Protection (Ethanol 0.0252 % (w/v), p < 0.05 versus control): 42%
- % Protection (Ethanol 0.0505 % (w/v) (composition of Example 1), p < 0.05 versus control): 60%
- % Protection (Ethanol 0.101 % (w/v)): 31%
